Read-outs that look alike come from different tables or passages of the source.
Experiments:
[1] = target: T1, human TET2 (Homo sapiens, UniProt Q6N021); details: for inhibition of TET2: additional experiments, data not shown, assay format not stated; for inhibition of TET2 activity (in words) / IC50: MALDI assay; for inhibition of TET2 activity (in words): synthesized compounds; for IC50: resynthesized/synthesized compounds, highest concentration 200 µM
[2] = target: T1, human TET2; details: FRET assay dose response; three independent experiments with technical duplicates
Procedure: Use of a DNA duplex terminally labelled with a FRET donor/acceptor dye pair (Cy3/Cy5) thereby enables measuring the amount of caC product generated from an mC duplex by TET (Fig. 1A). […] We identified an universal buffer system (50 mM potassium acetate, 20 mM Tris-acetate, 10 mM magnesium acetate, 100 μg ml^−1 BSA, pH 7.9) that was compatible with the activity of both TET2 and MspI, and thus was applicable to one pot reactions without intermediate purification steps. We incubated 0.5 μM of the DNA duplex with TET2 at different concentrations under aerobic conditions and in the presence of essential assay components, i.e. α-KG, ascorbate, dithiothreitol (DTT), and Fe(II) at 37 °C and pH 8 for 1 hour. We then added 20 U MspI enzyme to determine the caC level generated by TET2-mediated oxidation.
For screening, we premixed the annealed oligonucleotides with TET2 and all other essential components except Fe(II) in 1536-well plates, followed by the acoustic transfer of test compounds into each well at a final concentration of 50 μM. […] In order to distinguish the false-positive hits, we normalized the final Cy5 fluorescence of each well to its respective initial value immediately after MspI addition. […]
fluorescence signals were recorded on an Infinite® M1000 (Tecan). […]

[3] = tested on: TET1; design: method as in PMID 35586434; details: cited from earlier work
[4] = tested on: TET2; design: method as in PMID 35586434; details: cited from earlier work

Compound	IC50 [1] [µM]	also measured
Nc1ccccc1S(=O)(=O)O [o-anilinesulfonic acid, reference compound]		inhibition of TET2 [1]: no inhibition
CNS(=O)(=O)c1ccc(F)c2ncc(I)cc12 [compound 9]	> 200	inhibition of TET2 activity (in words) [1]: inactive
NS(=O)(=O)c1ccc(F)c2ncc(I)cc12 [compound 8]	86.6 ± 5.6	
O=S(=O)(Nc1ccccc1)c1ccc(F)c2ncc(I)cc12 [compound 11]	23.9 ± 4.1	
O=S(=O)(NCCc1ccccc1)c1ccc(F)c2ncc(I)cc12 [compound 14]	> 200	
CCCCCOS(=O)(=O)c1ccc(F)c2ncc(I)cc12 [compound 6]	> 200	
CC(=O)N(O)CCCCCNC(=O)CCC(=O)N(O)CCCCCNC(=O)CCC(=O)N(O)CCCCCN [DFOA, deferoxamine]		IC50 [2]: 46 µM
Cc1ccc(S(=O)(=O)O)cc1 [p-toluenesulfonic acid, reference compound]		inhibition of TET2 [1]: no inhibition
CC(C)OS(=O)(=O)c1ccc(F)c2ncc(I)cc12 [compound 5]	> 200	
O=S(=O)(NCc1ccccc1)c1ccc(F)c2ncc(I)cc12 [compound 13]	> 200	
Nc1nc(=O)n(-c2cccc(-c3ccccc3)c2)cc1Cl [Bobcat339]		inhibition of TET1 [3]: not be an inhibitor; inhibition of TET2 [4]: not be an inhibitor
O=S(=O)(c1ccc(F)c2ncc(I)cc12)N1CCCC1 [compound 10]	> 200	inhibition of TET2 activity (in words) [1]: inactive
O=C(O)c1ccnc(Br)c1 [2-bromoisonicotinic acid, reference compound]		inhibition of TET2 [1]: no inhibition
O=S(=O)(Nc1cccc(O)c1)c1ccc(F)c2ncc(I)cc12 [compound 16]	> 200	

— paper PMC9749932, “A high-throughput effector screen identifies a novel small molecule scaffold for inhibition of ten-eleven translocation dioxygenase 2” (RSC Medicinal Chemistry, 2022)
